According to PubChem BioAssay AID2060510 (Molecular Pharmacology Branch, DTP, NCI, 2025):
pIC50: −log10 of the molar value. Blank lines part the entries; values can stand above or below the compound they belong to.

System: 439559-082-T-J2-PDC spheroids viability
Experiment: Anticancer human tumor 439559-082-T-J2-PDC patient-derived colon adenocarcinoma cell line growth inhibition [GQUAD]
Settings: for pIC50: curve of first compound; for viability, T/C: stronger effect = lower value
Text: DNA G-quadruplex Stabilizer Agents in Combinations in Complex Spheroids
A high-throughput screen of multi-cell type tumor spheroids was designed to identify active combinations of DNA G-quadruplex stabilizer agents and targeted small molecules. Complex spheroids include a stromal component modeled by human endothelial cells (HUVEC) and fibroblasts modeled by human mesenchymal stem cells (MSCs). The concentration ranges selected for each drug and investigational agent were based upon clinically achievable concentrations if the clinical Cmax of the agent was known.
Compounds. The drugs and investigational agents: pidnarulex (CX-5461; NSC782164), APTO-253 (NSC789042), BRACO-19 (NSC847499), peposertib (NSC802822), ceralasertib (NSC780249), elimusertib (NSC800525), camonsertib (NSC841442), AZD-1390 (NSC803789), olaparib (NSC753686), talazoparib (NSC767125), ART-558 (NSC835418), sotorasib (NSC818433), MRTX-1133 (NSC836407), SN-38 (NSC673596), topotecan (NSC609699), etoposide (NSC141540), doxorubicin (NSC123127), gemcitabine (NSC613327), 5-fluorouracil (NSC19893), paclitaxel (NSC125973), vemurafenib (NSC761431), panobinostat (NSC761190), R-306465 (JNJ-16241199; NSC773264), adavosertib (NSC754352), TP-3654 (NSC805149), carboplatin (NSC241240), KSQ-4279 (NSC840948), and staurosporine (NSC755774) were obtained from the National Cancer Institute (NCI) Developmental Therapeutics Program Chemical Repository (34). The FDA-approved anticancer drug set is available from the NCI Developmental Therapeutics Program. […] The stock solutions were prepared in dimethyl sulfoxide (DMSO, Sigma-Aldrich, St. Louis, MO, cat. D2650) at 800-fold the tested concentration and stored at -70 degrees C prior to their use. All drugs and investigational agents were tested over a range starting from a high concentration at or near the clinical Cmax and decreasing in half-log increments. If the clinical Cmax for an agent had not been determined, the highest concentration tested was 10 microM.
2.3 Cell Culture. All cells were maintained in an incubator at 37 degrees C and 5% CO2 with 95% humidity. The PDC lines were cultured according to standard operating procedures established by the NCI PDMR. All PDCs were thawed and cultured in Matrigel-coated flasks prepared with a working solution of 1X Ham's F-12 nutrient mix, without supplementation (Invitrogen, cat. 11765054), 100 U/mL penicillin-streptomycin (Invitrogen, cat. 15140122), and 2.5% Matrigel (Corning Inc., cat. 354248) for the first three passages. The 857933-349-R-J2-PDC line was cultured in 6C/Colon 1B media, which includes advanced DMEM/F-12 (Thermo Fisher Scientific, cat. 12634028), 10 mM HEPES (Thermo Fisher Scientific, cat. 15630080), 1X GlutaMAX supplement (Thermo Fisher Scientific, cat. 35050061), 0.1 mg/mL primocin (InvivoGen, cat. ant-pm-2), 10% defined fetal bovine serum, heat inactivated (HyClone Laboratories Inc., cat. SH30070.03HI), 50% L-WRN conditioned media (ATCC, cat. CRL-3276), 1.25 mM N-Acetyl-L-cysteine (Sigma-Aldrich, cat. A9165), 10 mM nicotinamide (Sigma-Aldrich, cat. N0636), 1X B-27 supplement (Thermo Fisher Scientific, cat. 17504044), 1X N-2 supplement (Thermo Fisher Scientific, cat. 17502048), 10 microM Y-27632 dihydrochloride (Tocris Bioscience, cat. 1254), and 50 ng/mL human EGF recombinant protein (Thermo Fisher Scientific, cat. PHG0311). The 485176-168-R4-J1-PDC line was cultured in Panc media, which includes all 6C/Colon 1B media components plus 100 ng/mL human FGF-10 (Thermo Fisher Scientific, cat. 100-26), 500 nM SB-431542 (Selleckchem, cat. S1067), and gastrin (Tocris, cat. 3006).
[…]

[1] = second compound 0.0316 µM, first compound 0.0316 µM
[2] = second compound 0.0316 µM, first compound 0.1 µM
[3] = second compound 0.0316 µM, first compound 0.316 µM
[4] = second compound 0.0316 µM, first compound 1 µM
[5] = second compound 0.0316 µM, first compound 3.16 µM
[6] = second compound 0.0316 µM, first compound 10 µM
[7] = second compound 0.1 µM, first compound 0.0316 µM
[8] = second compound 0.1 µM, first compound 0.1 µM
[9] = second compound 0.1 µM, first compound 0.316 µM
[10] = second compound 0.1 µM, first compound 1 µM
[11] = second compound 0.1 µM, first compound 3.16 µM
[12] = second compound 0.1 µM, first compound 10 µM
[13] = second compound 0.316 µM, first compound 0.0316 µM
[14] = second compound 0.316 µM, first compound 0.1 µM
[15] = second compound 0.316 µM, first compound 0.316 µM
[16] = second compound 0.316 µM, first compound 1 µM
[17] = second compound 0.316 µM, first compound 3.16 µM
[18] = second compound 0.316 µM, first compound 10 µM
[19] = second compound 1 µM, first compound 0.0316 µM
[20] = second compound 1 µM, first compound 0.1 µM
[21] = second compound 1 µM, first compound 0.316 µM
[22] = second compound 1 µM, first compound 1 µM
[23] = second compound 1 µM, first compound 3.16 µM
[24] = second compound 1 µM, first compound 10 µM
[25] = second compound 3.16 µM, first compound 0.0316 µM
[26] = second compound 3.16 µM, first compound 0.1 µM
[27] = second compound 3.16 µM, first compound 0.316 µM
[28] = second compound 3.16 µM, first compound 1 µM
[29] = second compound 3.16 µM, first compound 3.16 µM
[30] = second compound 3.16 µM, first compound 10 µM
[31] = second compound 10 µM, first compound 0.0316 µM
[32] = second compound 10 µM, first compound 0.1 µM
[33] = second compound 10 µM, first compound 0.316 µM
[34] = second compound 10 µM, first compound 1 µM
[35] = second compound 10 µM, first compound 3.16 µM
[36] = second compound 10 µM, first compound 10 µM
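Further: spheroids exposed to the agents for 7 days before readout.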
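Wherever viability, T/C is given: percent of luminescence signal in DMSO vehicle wells taken as 100% viability.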

SMILES: CC(C)(O)C1CCC(Nc2ccc3ncc(-c4cccc(C(F)(F)F)c4)n3n2)CC1 (stereo unspecified) + Cc1[nH]c2ccc(F)cc2c1-c1nc2c3cccnc3c3ncccc3c2[nH]1
pIC50 (second compound 0.0316 µM): < 5.00
pIC50 (second compound 0.1 µM): 5.10
pIC50 (second compound 0.316 µM): < 5.00
pIC50 (second compound 1 µM): 5.20
pIC50 (second compound 3.16 µM): 5.49
pIC50 (second compound 10 µM): 5.91
viability, T/C [1]: 99.4%
viability, T/C [2]: 85.6%
viability, T/C [3]: 70.6%
viability, T/C [4]: 66%
viability, T/C [5]: 58.8%
viability, T/C [6]: 48.6%
viability, T/C [7]: 102%
viability, T/C [8]: 78%
viability, T/C [9]: 77.9%
viability, T/C [10]: 58.8%
viability, T/C [11]: 66.2%
viability, T/C [12]: 42.9%
viability, T/C [13]: 86.3%
viability, T/C [14]: 76.6%
viability, T/C [15]: 62.4%
viability, T/C [16]: 61.9%
viability, T/C [17]: 53.6%
viability, T/C [18]: 50.1%
viability, T/C [19]: 87.1%
viability, T/C [20]: 69.1%
viability, T/C [21]: 76.4%
viability, T/C [22]: 66.3%
viability, T/C [23]: 61.4%
viability, T/C [24]: 42.5%
viability, T/C [25]: 77.8%
viability, T/C [26]: 73%
viability, T/C [27]: 62.3%
viability, T/C [28]: 51.3%
viability, T/C [29]: 57.7%
viability, T/C [30]: 41.1%
viability, T/C [31]: 75.8%
viability, T/C [32]: 73%
viability, T/C [33]: 63.4%
viability, T/C [34]: 50.6%
viability, T/C [35]: 44.5%
viability, T/C [36]: 38.2%

SMILES: CC1COCCN1c1cc(-c2ccnn2C)c2ccnc(-c3ccn[nH]3)c2n1 (stereo unspecified) + Cc1[nH]c2ccc(F)cc2c1-c1nc2c3cccnc3c3ncccc3c2[nH]1
pIC50 (second compound 0.0316 µM): 6.37
pIC50 (second compound 0.1 µM): 6.57
pIC50 (second compound 0.316 µM): 6.53
pIC50 (second compound 1 µM): 6.56
pIC50 (second compound 3.16 µM): 6.64
pIC50 (second compound 10 µM): 6.68
viability, T/C [1]: 106%
viability, T/C [2]: 80.6%
viability, T/C [3]: 53.5%
viability, T/C [4]: 38.8%
viability, T/C [5]: 35.8%
viability, T/C [6]: 30.7%
viability, T/C [7]: 103%
viability, T/C [8]: 77.2%
viability, T/C [9]: 45.7%
viability, T/C [10]: 36.9%
viability, T/C [11]: 40.8%
viability, T/C [12]: 34.5%
viability, T/C [13]: 101%
viability, T/C [14]: 87.4%
viability, T/C [15]: 47.8%
viability, T/C [16]: 34%
viability, T/C [17]: 41.6%
viability, T/C [18]: 30.2%
viability, T/C [19]: 91.6%
viability, T/C [20]: 82%
viability, T/C [21]: 46%
viability, T/C [22]: 31.9%
viability, T/C [23]: 39.6%
viability, T/C [24]: 29.8%
viability, T/C [25]: 88.2%
viability, T/C [26]: 73.5%
viability, T/C [27]: 40.6%
viability, T/C [28]: 30.3%
viability, T/C [29]: 34.1%
viability, T/C [30]: 27.4%
viability, T/C [31]: 76.1%
viability, T/C [32]: 73.5%
viability, T/C [33]: 36.8%
viability, T/C [34]: 31.6%
viability, T/C [35]: 32.8%
viability, T/C [36]: 29.6%

pIC50 (second compound 0.0316 µM): < 5.00
pIC50 (second compound 0.1 µM): < 5.00
pIC50 (second compound 0.316 µM): < 5.00
pIC50 (second compound 1 µM): < 5.00
pIC50 (second compound 3.16 µM): < 5.00
pIC50 (second compound 10 µM): < 5.00
SMILES: CC1COCCN1c1cc(C2(S(C)(=N)=O)CC2)nc(-c2ccnc3[nH]ccc23)n1 (stereo unspecified) + Cc1cnc(CNC(=O)c2c(=O)c3ccc(N4CCCN(C)CC4)nc3n3c2sc2ccccc23)cn1
viability, T/C [1]: 99.5%
viability, T/C [2]: 86.3%
viability, T/C [3]: 93.8%
viability, T/C [4]: 89.6%
viability, T/C [5]: 90.9%
viability, T/C [6]: 69.9%
viability, T/C [7]: 100%
viability, T/C [8]: 94.4%
viability, T/C [9]: 86.4%
viability, T/C [10]: 85.5%
viability, T/C [11]: 86.5%
viability, T/C [12]: 61.8%
viability, T/C [13]: 80.3%
viability, T/C [14]: 78.3%
viability, T/C [15]: 80.8%
viability, T/C [16]: 81.5%
viability, T/C [17]: 79.1%
viability, T/C [18]: 60.9%
viability, T/C [19]: 76.1%
viability, T/C [20]: 65.2%
viability, T/C [21]: 78.2%
viability, T/C [22]: 75.5%
viability, T/C [23]: 75.8%
viability, T/C [24]: 65.6%
viability, T/C [25]: 62%
viability, T/C [26]: 74.5%
viability, T/C [27]: 66.4%
viability, T/C [28]: 71.3%
viability, T/C [29]: 75.3%
viability, T/C [30]: 55.7%
viability, T/C [31]: 61.3%
viability, T/C [32]: 59.1%
viability, T/C [33]: 66.8%
viability, T/C [34]: 60.8%
viability, T/C [35]: 61.6%
viability, T/C [36]: 49.2%
